Source: patent publication US10815238B2, “Antimicrobial compounds and methods of making and using the same” (BIOVERSYS AG, priority 2013, dated 2020)

Tests used:
[1] = system: Staphylococcus aureus (S. aureus) 11540 strain; test: Standard microdilution assay, MIC against S. aureus 11540; format: cell-based; settings: S. aureus 11540 strain, standard microdilution assay, cutoff 16 micrograms/mL, read-out: MIC S. aureus
Procedure, shortened: (§1)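 MIC determined by broth microdilution following CLSI protocols, with reference strains run in parallel for quality control. Activity scored +/− at a cutoff of 16 micrograms/mL.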

[2] = system: Eschericia coli (E. coli) strain ATCC25922; test: Standard microdilution assay, MIC against E. coli ATCC25922; format: cell-based; settings: Escherichia coli; E. coli strain ATCC25922, standard microdilution assay; cutoff 16 micrograms/mL; read-out: MIC E. Coli
Procedure, shortened: as §1

SMILES | MIC [1] [µg/mL] | MIC [2] [µg/mL]
NCC[C@@H]1CCC[C@@H](c2ccc(-n3cc4cc(-c5ccc(S(=O)(=O)NC6CCNCC6)cc5)[nH]c4nc3=O)cc2)N1 [Compound 493] | < 16 | < 16
N=C(N)NCC[C@@H]1CCC[C@@H](c2ccc(-n3cc4cc(-c5ccc(S(=O)(=O)NC6CCN(C(=N)N)CC6)cc5)[nH]c4nc3=O)cc2)N1 [Compound 494] | < 16 | < 16
Cc1noc(C[C@@H]2CCC[C@@H](c3ccc(-n4cc5cc(-c6cc(CCC[C@H](C)N)cc(Cl)c6F)[nH]c5nc4=O)cc3)N2)n1 [Compound 497] | < 16 | > 16
C[C@H](N)CCCc1cc(Cl)c(F)c(-c2cc3cn(-c4ccc(CN[C@H](CCNC(=N)N)Cn5ccnn5)cc4)c(=O)nc3[nH]2)c1 [Compound 499] | < 16 | < 16
C[C@H](N)CCCc1cc(Cl)c(F)c(-c2cc3cn(-c4ccc(CN[C@H](CCN)Cn5ccnn5)cc4)c(=O)nc3[nH]2)c1 [Compound 500] | < 16 | < 16
N=C(NC1CC1)c1ccc(-n2cc3cc(-c4ccc(S(=O)(=O)NC5CCNCC5)cc4)[nH]c3nc2=O)cc1 [Compound 502] | < 16 | < 16
C[C@H](N)CCCc1cc(Cl)c(F)c(-c2cc3cn(-c4ccc(C(=N)NC5CC5)cc4)c(=O)nc3[nH]2)c1 [Compound 503] | < 16 | < 16
N=C(NC1CCCC1)c1ccc(-n2cc3cc(-c4ccc(S(=O)(=O)NC5CCNCC5)cc4)[nH]c3nc2=O)cc1 [Compound 504] | > 16 | > 16
C[C@H](N)CCCc1cc(Cl)c(F)c(-c2cc3cn(-c4ccc(C(=N)NC5CCCC5)cc4)c(=O)nc3[nH]2)c1 [Compound 505] | < 16 | < 16
CC#C[C@H](CCNC(=N)N)NCc1ccc(-n2cc3cc(-c4cc(CCC[C@H](C)N)cc(Cl)c4F)[nH]c3nc2=O)cc1 [Compound 506] | < 16 | < 16
CC#C[C@@H](CCNC(=N)N)NCc1ccc(-n2cc3cc(-c4cc(CCC[C@H](C)N)cc(Cl)c4F)[nH]c3nc2=O)cc1 [Compound 507] | < 16 | < 16
C[C@H](N)CCCc1cc(Cl)c(F)c(-c2cc3cn(-c4ccc(C(=N)NCC[C@H](C)N)cc4)c(=O)nc3[nH]2)c1 [Compound 512] | < 16 | < 16
Cc1cc(OC[C@@H](CCNC(=N)N)NCc2ccc(-n3cc4cc(-c5cc(CCC[C@H](C)N)cc(Cl)c5F)[nH]c4nc3=O)cc2)no1 [Compound 518] | < 16 | < 16
C[C@H](N)CCCc1cc(Cl)c(F)c(-c2cc3cn(-c4ccc(CN[C@@H](CCNC(=N)N)CCc5nccs5)cc4)c(=O)nc3[nH]2)c1 [Compound 519] | < 16 | < 16
C[C@H](N)CCCc1cc(Cl)c(F)c(-c2cc3cn(-c4ccc([C@@H]5CCO[C@@H](CCCN)C5)cc4)c(=O)nc3[nH]2)c1 [Compound 522] | < 16 | < 16
C[C@H](N)CCCc1cc(Cl)c(F)c(-c2cc3cn(-c4ccc([C@@H]5CCO[C@@H](CCCNC(=N)N)C5)cc4)c(=O)nc3[nH]2)c1 [Compound 523] | < 16 | < 16
C[C@H](N)CCCc1cc(Cl)c(F)c(-c2cc3cn(-c4ccc(CN[C@H](CCNC(=N)N)CNc5ncccn5)cc4)c(=O)nc3[nH]2)c1 [Compound 524] | < 16 | < 16
C[C@H](N)CCCc1cc(Cl)c(F)c(-c2cc3cn(-c4ccc([C@@H]5CCO[C@@H](CCN)C5)cc4)c(=O)nc3[nH]2)c1 [Compound 525] | < 16 | < 16
C[C@H](N)CCCc1cc(Cl)c(F)c(-c2cc3cn(-c4ccc(CN[C@H](CCNC(=N)N)CCc5nccs5)cc4)c(=O)nc3[nH]2)c1 [Compound 528] | < 16 | < 16
C[C@H](N)CCCc1cc(Cl)c(F)c(-c2cc3cn(-c4ccc([C@@H]5CCC[C@@H](Cc6ncc(N)s6)N5)cc4)c(=O)nc3[nH]2)c1 [Compound 529] | > 16 | > 16
C[C@H](N)CCCc1cc(Cl)c(F)c(-c2cc3cn(-c4ccc(CO[C@H](CCNC(=N)N)CNc5nccs5)cc4)c(=O)nc3[nH]2)c1 [Compound 534] | < 16 | < 16
C[C@H](N)CCCc1cc(Cl)c(F)c(-c2cc3cn(-c4ccc(CN[C@H](CCNC(=N)N)CNc5ncc[nH]5)cc4)c(=O)nc3[nH]2)c1 [Compound 536] | < 16 | < 16
C[C@H](N)CCCc1cc(Cl)c(F)c(-c2cc3cn(-c4ccc(CN[C@H](CCN)CNc5ncc[nH]5)cc4)c(=O)nc3[nH]2)c1 [Compound 537] | < 16 | < 16
C[C@H](N)CCCc1cc(Cl)c(F)c(-c2cc3cn(-c4ccc([C@@H]5CCC[C@@H](Cn6cn[nH]c6=O)N5)cc4)c(=O)nc3[nH]2)c1 [Compound 539] | > 16 | > 16

Further lines, results first:

MIC [1] [µg/mL] | MIC [2] [µg/mL] | SMILES
< 16 | < 16 | N=C(N)NCC[C@@H]1CCC[C@@H](c2ccc(-n3cc4cc(-c5ccc(S(=O)(=O)NC6CCNCC6)cc5)[nH]c4nc3=O)cc2)N1 [Compound 492]
> 16 | > 16 | C[C@H](N)CCCc1cc(Cl)c(F)c(-c2cc3cn(-c4ccc([C@@H]5CCC[C@@H](Cc6nnc[nH]6)N5)cc4)c(=O)nc3[nH]2)c1 [Compound 496]
< 16 | > 16 | C[C@H](N)CCCc1cc(Cl)c(F)c(-c2cc3cn(-c4ccc([C@@H]5CCC[C@@H](CC#N)N5)cc4)c(=O)nc3[nH]2)c1 [Compound 498]
> 16 | > 16 | CC(=O)NCC[C@@H]1CCC[C@@H](c2ccc(-n3cc4cc(-c5cc(CCC[C@H](C)N)cc(Cl)c5F)[nH]c4nc3=O)cc2)N1 [Compound 501]
< 16 | < 16 | C[C@H](N)CCCc1cc(Cl)c(F)c(-c2cc3cn(-c4ccc([C@@H]5CCC[C@@H](CCc6ncc[nH]6)N5)cc4)c(=O)nc3[nH]2)c1 [Compound 508]
> 16 | > 16 | C[C@H](N)CCCc1cc(Cl)c(F)c(-c2cc3cn(-c4ccc([C@@H]5CCC[C@@H](Cc6nn[nH]n6)N5)cc4)c(=O)nc3[nH]2)c1 [Compound 509]
> 16 | > 16 | C[C@H](N)CCCc1cc(Cl)c(F)c(-c2cc3cn(-c4ccc([C@@H]5CCC[C@@H](CCNC(N)=O)N5)cc4)c(=O)nc3[nH]2)c1 [Compound 510]
< 16 | < 16 | C[C@H](N)CCCc1cc(Cl)c(F)c(-c2cc3cn(-c4ccc([C@@H]5CCC[C@@H](CCC(N)=O)N5)cc4)c(=O)nc3[nH]2)c1 [Compound 511]
> 16 | > 16 | CNC(=O)CC[C@@H]1CCC[C@@H](c2ccc(-n3cc4cc(-c5cc(CCC[C@H](C)N)cc(Cl)c5F)[nH]c4nc3=O)cc2)N1 [Compound 513]
> 16 | > 16 | C[C@H](N)CCCc1cc(Cl)c(F)c(-c2cc3cn(-c4ccc([C@@H]5CCC[C@@H](CCC(=O)O)N5)cc4)c(=O)nc3[nH]2)c1 [Compound 514]
< 16 | < 16 | C[C@H](N)CCCc1cc(Cl)c(F)c(-c2cc3cn(-c4ccc([C@@H]5CCC[C@@H](CCNC=N)N5)cc4)c(=O)nc3[nH]2)c1 [Compound 515]
< 16 | < 16 | CC(=N)NCC[C@@H]1CCC[C@@H](c2ccc(-n3cc4cc(-c5cc(CCC[C@H](C)N)cc(Cl)c5F)[nH]c4nc3=O)cc2)N1 [Compound 516]
< 16 | < 16 | CN/C(=C/[N+](=O)[O-])NCC[C@@H]1CCC[C@@H](c2ccc(-n3cc4cc(-c5cc(CCC[C@H](C)N)cc(Cl)c5F)[nH]c4nc3=O)cc2)N1 [Compound 517]
< 16 | < 16 | C[C@H](N)CCCc1cccc(-c2cc3cn(-c4ccc(CNCCCNC(=N)N)cc4)c(=O)nc3[nH]2)c1 [Compound 520]
< 16 | < 16 | C[C@H](N)CCCc1cccc(-c2cc3cn(-c4ccc([C@H](C)NCCCNC(=N)N)cc4)c(=O)nc3[nH]2)c1 [Compound 521]
< 16 | < 16 | C[C@H](N)CCCc1cc(Cl)c(F)c(-c2cc3cn(-c4ccc([C@@H]5CCO[C@@H](CCNC(=N)N)C5)cc4)c(=O)nc3[nH]2)c1 [Compound 526]
< 16 | < 16 | C[C@H](N)CCCc1cc(Cl)c(F)c(-c2cc3cn(-c4ccc([C@@H]5CCC[C@@H](CCNC(=N)N)N5C)cc4)c(=O)nc3[nH]2)c1 [Compound 527]
> 16 | > 16 | C[C@H](N)CCCc1cc(Cl)c(F)c(-c2cc3cn(-c4ccc([C@@H]5CCC[C@@H](CCn6cccn6)N5)cc4)c(=O)nc3[nH]2)c1 [Compound 530]
< 16 | < 16 | C[C@H](N)CCCc1cccc(-c2cc3cn(-c4ccc([C@@H]5CCC[C@@H](CCNC(=N)N)N5)cc4)c(=O)nc3[nH]2)c1 [Compound 531]
< 16 | > 16 | C[C@H](N)CCCc1cc(Cl)c(F)c(-c2cc3cn(-c4ccc([C@@H]5CCC[C@@H](CCC6CC6)N5)cc4)c(=O)nc3[nH]2)c1 [Compound 532]
< 16 | < 16 | C[C@H](N)CCCc1cc(Cl)c(F)c(-c2cc3cn(-c4ccc([C@@H]5CCC[C@@H](CCn6ccnc6)N5)cc4)c(=O)nc3[nH]2)c1 [Compound 533]
< 16 | > 16 | C[C@H](N)CCCc1cc(Cl)c(F)c(-c2cc3cn(-c4ccc([C@@H]5CCC[C@@H](CCNc6nccs6)N5)cc4)c(=O)nc3[nH]2)c1 [Compound 535]
< 16 | > 16 | C[C@H](N)CCCc1cc(Cl)c(F)c(-c2cc3cn(-c4ccc([C@@H]5CCC[C@@H](Cc6cnc(N)s6)N5)cc4)c(=O)nc3[nH]2)c1 [Compound 538]
< 16 | < 16 | C[C@H](N)CCCc1cc(Cl)c(F)c(-c2cc3cn(-c4ccc([C@@H]5CCC[C@@H](CNC(=N)N)N5)cc4)c(=O)nc3[nH]2)c1 [Compound 540]
< 16 | < 16 | C[C@H](N)CCCc1cc(Cl)c(F)c(-c2cc3cn(-c4ccc([C@H]5CCC[C@H](CCNC6=NCCN6)N5)cc4)c(=O)nc3[nH]2)c1 [Compound 541]
